Legend:
Format in all cases: functional
[1] = system: Alternaria alternata; assay: Fungicidal activity against Alternaria alternata APS-38 assessed as mycelial growth inhibition at 25 mg/L after 3 days; conditions: APS-38, 72 h, read-out: GI
[2] = system: Gaeumannomyces graminis; assay: Fungicidal activity against Gaeumannomyces graminis MAFF305168 assessed as mycelial growth inhibition at 25 mg/L after 1 day; conditions: MAFF305168, 24 h, read-out: GI
[3] = system: Rhizoctonia solani; assay: Fungicidal activity against Rhizoctonia solani ET0007 assessed as mycelial growth inhibition at 25 mg/L after 1 day; conditions: ET0007, 24 h, read-out: GI
[4] = system: Microdochium nivale; assay: Fungicidal activity against Microdochium nivale IFO-7432 assessed as mycelial growth inhibition at 25 mg/L after 3 days; conditions: IFO-7432, 72 h, read-out: GI
[5] = system: Zymoseptoria tritici; assay: Fungicidal activity against Zymoseptoria tritici S3 assessed as mycelial growth inhibition at 25 mg/L after 14 days; conditions: S3, 336 h, read-out: GI
[6] = system: Rhynchosporium secalis; assay: Fungicidal activity against Rhynchosporium secalis IFO-5290 assessed as mycelial growth inhibition at 25 mg/L after 14 days; conditions: IFO-5290, 336 h, read-out: GI
[7] = system: Cercospora beticola; assay: Fungicidal activity against Cercospora beticola Be-2-6 assessed as mycelial growth inhibition at 25 mg/L after 7 days; conditions: Be-2-6, 168 h, read-out: GI
[8] = system: Fusarium graminearum; assay: Fungicidal activity against Fusarium graminearum H3 assessed as mycelial growth inhibition at 25 mg/L after 3 days; conditions: H3, 72 h, read-out: GI
[9] = system: Pyrenophora graminea; assay: Fungicidal activity against Pyrenophora graminea IFO-7507 assessed as mycelial growth inhibition at 25 mg/L after 3 days; conditions: IFO-7507, 72 h, read-out: GI

| SMILES | inhibition of growth at 25 µg/mL [1] | inhibition of growth at 25 µg/mL [2] | inhibition of growth at 25 µg/mL [3] | inhibition of growth at 25 µg/mL [4] | inhibition of growth at 25 µg/mL [5] | inhibition of growth at 25 µg/mL [6] | inhibition of growth at 25 µg/mL [7] | inhibition of growth at 25 µg/mL [8] | inhibition of growth at 25 µg/mL [9] |
| --- | --- | --- | --- | --- | --- | --- | --- | --- | --- |
| Cc1cc(=O)n(Cc2ccccc2)o1 | 9% | 0% | 10% | 4% | 6% | 0% | 4% | 6% | 46% |
| CC(=O)n1oc(C)cc1=O | 90% | 72% | 26% | 79% | 98% | 100% | 92% | 50% | 72% |
| CCC(=O)n1oc(C)cc1=O | 87% | 50% | 22% | 68% | 69% | 100% | 94% | 32% | 88% |
| Cc1cc(=O)n(C(=O)C(C)(C)C)o1 | 84% | 83% | 43% | 82% | 64% | 100% | 85% | 40% | 95% |
| Cc1cc(=O)n(C(=O)CCl)o1 | 81% | 66% | 19% | 72% | 70% | 100% | 94% | 28% | 89% |
| COCC(=O)n1oc(C)cc1=O | 62% | 54% | 68% | 45% | 63% | 100% | 91% | 37% | 82% |
| Cc1cc(=O)n(C(=O)CC(C)(C)C)o1 | 64% | 97% | 71% | 76% | 70% | 96% | 93% | 47% | 76% |
| Cc1cc(=O)n(C(=O)CCC(F)(F)F)o1 | 61% | 60% | 57% | 54% | 65% | 98% | 89% | 32% | 46% |
| CSCCC(=O)n1oc(C)cc1=O | 64% | 58% | 62% | 50% | 67% | 99% | 92% | 37% | 76% |
| Cc1cc(=O)n(C(=O)Cc2ccccc2)o1 | 67% | 66% | 5% | 51% | 83% | 99% | 84% | 32% | 71% |
| Cc1cc(=O)n(C(=O)C(C)c2ccccc2)o1 (stereo not given) | 48% | 5% | 20% | 55% | 83% | 99% | 86% | 33% | 74% |
| Cc1cc(=O)n(C(=O)C(C)(C)Oc2ccc(Cl)cc2)o1 | 53% | 29% | 3% | 23% | 73% | 100% | 74% | 6% | 81% |
| Cc1cc(=O)n(C(=O)c2ccccc2I)o1 | 33% | 25% | 57% | 61% | 47% | 100% | 88% | 36% | 92% |
| Cc1cc(C)c(C(=O)n2oc(C)cc2=O)c(C)c1 | 22% | 22% | 3% | 4% | 10% | 0% | 11% | 10% | 90% |
| Cc1cc(=O)n(C(=O)c2c(F)c(F)c(F)c(F)c2F)o1 | 60% | 0% | 5% | 36% | 56% | 100% | 90% | 22% | 87% |
| Cc1cc(=O)n(C(=O)/C=C/c2ccccc2)o1 | 67% | 0% | 92% | 59% | 62% | 100% | 91% | 26% | 90% |
| Cc1cc(=O)n(C(=O)/C=C/c2ccc(Cl)cc2)o1 | 54% | 20% | 66% | 45% | 77% | 100% | 77% | 43% | 77% |
| Cc1cc(=O)n(C(=O)C#Cc2ccccc2)o1 | 72% | 3% | 17% | 41% | 83% | 98% | 88% | 23% | 73% |
| Cc1cc(=O)n(C(=O)C2(c3ccccc3)CC2(Cl)Cl)o1 (stereo not given) | 50% | 9% | 46% | 58% | 69% | 99% | 85% | 32% | 89% |
| Cc1cc(=O)n(C(=O)C2(C)C(C)(C)C2(Cl)Cl)o1 (stereo not given) | 31% | 0% | 24% | 36% | 50% | 87% | 80% | 20% | 79% |
| Cc1cc(=O)n(C(=O)C2CCc3ccccc3C2)o1 (stereo not given) | 64% | 57% | 50% | 82% | 95% | 100% | 80% | 40% | 73% |
| Cc1cc(=O)n(C(=O)/C=C/c2ccoc2)o1 | 60% | 72% | 90% | 68% | 53% | 100% | 91% | 44% | 96% |
| Cc1cc(=O)n(C(=O)/C=C/c2cccs2)o1 | 54% | 16% | 75% | 60% | 78% | 100% | 77% | 40% | 89% |
| Cc1cc(=O)n(C(=O)/C=C/c2ccsc2)o1 | 50% | 45% | 100% | 69% | 61% | 100% | 90% | 32% | 97% |
| Cc1cc(=O)n(C(=O)CCCCC(=O)n2oc(C)cc2=O)o1 | 81% | 56% | 18% | 61% | 52% | 100% | 93% | 27% | 91% |

From ChEMBL document CHEMBL3044528, “Potential new fungicides: N-acyl-5-methyl-3(2H)-isoxazolone derivatives” (2012)
